# Values of other authors as cited in PMC8202924, “Emodepside targets SLO-1 channels of Onchocerca ochengi and induces broad anthelmintic effects in a bovine model of onchocerciasis” (PLoS Pathogens, 2021).
# Test system: O. volvulus
# Settings: from ~10 years to 2–3 years; cited from earlier work
structure (smiles),measurement,value
C[C@H]1c2cccc(O)c2C(=O)C2=C(O)[C@]3(O)C(=O)C(C(N)=O)=C(O)[C@@H](N(C)C)[C@@H]3[C@@H](O)[C@@H]21 [doxycycline],Reduction in worm lifespan,70–80%
